Experimental data from ChEMBL document CHEMBL5303573, “Mapping human microbiome drug metabolism by gut bacteria and their genes” (Nature, 2019).

Key:
[1] = The drug is tested on Blautia luti strain: DSM14534 for biotransformation. The drug concentrations were measured before and after a 12-h incubation by liquid-chromatography-coupled mass spectrometry (LC–MS); format: ADME; set-up: dose 2 uM, timepoint 0 vs 12 hours; conditions: 2 µM
[2] = The drug is tested on Bacteroides sp. WH2 strain: WH2 for biotransformation. The drug concentrations were measured before and after a 12-h incubation by liquid-chromatography-coupled mass spectrometry (LC–MS); conditions: bacteroides sp. wh2, 12 h, 2 µM
[3] = The drug is tested on Anaerotruncus colihominis strain: DSM17241 for biotransformation. The drug concentrations were measured before and after a 12-h incubation by liquid-chromatography-coupled mass spectrometry (LC–MS); conditions: 2 µM
[4] = The drug is tested on Bifidobacterium breve strain: DSM20213 for biotransformation. The drug concentrations were measured before and after a 12-h incubation by liquid-chromatography-coupled mass spectrometry (LC–MS); conditions: 2 µM
[5] = The drug is tested on Ruminococcus torques strain: ATCC27756 for biotransformation. The drug concentrations were measured before and after a 12-h incubation by liquid-chromatography-coupled mass spectrometry (LC–MS); format: ADME; set-up: dose 2 uM, timepoint 0 vs 12 hours; conditions: 2 µM
[6] = The drug is tested on Ruminococcus lactaris strain: ATCC29176 for biotransformation. The drug concentrations were measured before and after a 12-h incubation by liquid-chromatography-coupled mass spectrometry (LC–MS); conditions: 2 µM
[7] = The drug is tested on Clostridium sporogenes strain: ATCC15579 for biotransformation. The drug concentrations were measured before and after a 12-h incubation by liquid-chromatography-coupled mass spectrometry (LC–MS); conditions: 2 µM
[8] = limosilactobacillus reuteri cf48-3a, 12 h, 2 µM
Description: The drug is tested on Lactobacillus reuteri CF48-3A strain: BEI HM-102 for biotransformation. The drug concentrations were measured before and after a 12-h incubation by liquid-chromatography-coupled mass spectrometry (LC–MS)

[9] = bacteroides intestinalis, 12 h, 2 µM
Description: The drug is tested on Bacteroides intestinalis strain: DSM17393 for biotransformation. The drug concentrations were measured before and after a 12-h incubation by liquid-chromatography-coupled mass spectrometry (LC–MS)

[10] = The drug is tested on Ruminococcus gnavus strain: ATCC29149 for biotransformation. The drug concentrations were measured before and after a 12-h incubation by liquid-chromatography-coupled mass spectrometry (LC–MS); conditions: mediterraneibacter gnavus, 2 µM
[11] = The drug is tested on Bacteroides xylanisolvens strain: DSM18836 for biotransformation. The drug concentrations were measured before and after a 12-h incubation by liquid-chromatography-coupled mass spectrometry (LC–MS); conditions: 2 µM
[12] = bacteroides thetaiotaomicron, 12 h, 2 µM
Description: The drug is tested on Bacteroides thetaiotaomicron strain: 3731 for biotransformation. The drug concentrations were measured before and after a 12-h incubation by liquid-chromatography-coupled mass spectrometry (LC–MS)

[13] = The drug is tested on Bacteroides fragilis strain: HMW610 for biotransformation. The drug concentrations were measured before and after a 12-h incubation by liquid-chromatography-coupled mass spectrometry (LC–MS); conditions: 2 µM
[14] = The drug is tested on Eubacterium ventriosum strain: ATCC27560 for biotransformation. The drug concentrations were measured before and after a 12-h incubation by liquid-chromatography-coupled mass spectrometry (LC–MS); format: ADME; set-up: dose 2 uM, timepoint 0 vs 12 hours; conditions: 2 µM
[15] = The drug is tested on Enterobacter cancerogenus strain: ATCC35316 for biotransformation. The drug concentrations were measured before and after a 12-h incubation by liquid-chromatography-coupled mass spectrometry (LC–MS); conditions: 2 µM
[16] = The drug is tested on Dorea formicigenerans strain: ATCC27755 for biotransformation. The drug concentrations were measured before and after a 12-h incubation by liquid-chromatography-coupled mass spectrometry (LC–MS); conditions: 2 µM
[17] = The drug is tested on Clostridium ramosum strain: DSM1402 for biotransformation. The drug concentrations were measured before and after a 12-h incubation by liquid-chromatography-coupled mass spectrometry (LC–MS); conditions: thomasclavelia ramosa, 2 µM
[18] = The drug is tested on Edwardsiella tarda strain: ATCC23685 for biotransformation. The drug concentrations were measured before and after a 12-h incubation by liquid-chromatography-coupled mass spectrometry (LC–MS); conditions: 2 µM
[19] = roseburia intestinalis, 12 h, 2 µM
Description: The drug is tested on Roseburia intestinalis strain: L1-82 for biotransformation. The drug concentrations were measured before and after a 12-h incubation by liquid-chromatography-coupled mass spectrometry (LC–MS)

Compound | Bacterial Biotransformation [1] | Bacterial Biotransformation [2] | Bacterial Biotransformation [3] | Bacterial Biotransformation [4] | Bacterial Biotransformation [5] | Bacterial Biotransformation [6] | Bacterial Biotransformation [7] | Bacterial Biotransformation [8] | Bacterial Biotransformation [9] | Bacterial Biotransformation [10] | Bacterial Biotransformation [11] | Bacterial Biotransformation [12] | Bacterial Biotransformation [13] | Bacterial Biotransformation [14] | Bacterial Biotransformation [15] | Bacterial Biotransformation [16] | Bacterial Biotransformation [17] | Bacterial Biotransformation [18] | Bacterial Biotransformation [19]
Cc1nc(Nc2ncc(C(=O)Nc3c(C)cccc3Cl)s2)cc(N2CCN(CCO)CC2)n1.O [DASATINIB] | Compound NOT metabolized | Compound NOT metabolized | Compound metabolized | Compound NOT metabolized | Compound NOT metabolized | Compound NOT metabolized | Compound NOT metabolized | Compound metabolized | Compound metabolized | Compound NOT metabolized | Compound NOT metabolized | Compound NOT metabolized | Compound metabolized | Compound NOT metabolized | Compound NOT metabolized | Compound NOT metabolized | Compound NOT metabolized |  | 
CN(C)CC(c1ccc(O)cc1)C1(O)CCCCC1.O=C(O)CCC(=O)O (stereo unspecified) [DESVENLAFAXINE SUCCINATE] | Compound NOT metabolized | Compound NOT metabolized | Compound NOT metabolized | Compound NOT metabolized | Compound NOT metabolized | Compound NOT metabolized | Compound NOT metabolized |  | Compound NOT metabolized | Compound NOT metabolized | Compound NOT metabolized | Compound NOT metabolized | Compound NOT metabolized | Compound NOT metabolized | Compound NOT metabolized | Compound NOT metabolized | Compound NOT metabolized | Compound NOT metabolized | Compound NOT metabolized
OC(Cn1cncn1)(Cn1cncn1)c1ccc(F)cc1F [FLUCONAZOLE] | Compound NOT metabolized | Compound NOT metabolized | Compound metabolized | Compound NOT metabolized | Compound metabolized | Compound NOT metabolized | Compound metabolized | Compound NOT metabolized |  | Compound metabolized | Compound metabolized |  | Compound metabolized | Compound NOT metabolized | Compound NOT metabolized | Compound metabolized | Compound NOT metabolized | Compound NOT metabolized | 
C=CCN1CC[C@]23c4c5ccc(O)c4O[C@H]2C(=O)CC[C@@]3(O)[C@H]1C5 [NALOXONE] | Compound NOT metabolized | Compound NOT metabolized | Compound NOT metabolized | Compound NOT metabolized | Compound metabolized | Compound NOT metabolized | Compound metabolized | Compound metabolized |  | Compound NOT metabolized | Compound metabolized | Compound metabolized | Compound metabolized | Compound NOT metabolized | Compound NOT metabolized | Compound NOT metabolized | Compound NOT metabolized | Compound NOT metabolized | Compound metabolized
NC(=O)N1c2ccccc2CC(=O)c2ccccc21 [OXCARBAZEPINE] | Compound metabolized | Compound NOT metabolized | Compound NOT metabolized | Compound NOT metabolized | Compound metabolized | Compound metabolized | Compound metabolized | Compound metabolized | Compound NOT metabolized | Compound NOT metabolized |  | Compound NOT metabolized | Compound NOT metabolized | Compound metabolized | Compound metabolized | Compound metabolized | Compound metabolized | Compound metabolized | Compound metabolized
CN(C(=O)CN(CCO)CC(=O)N(C)C(C)(C)Cc1ccccc1)C(C)(C)Cc1ccccc1 [OXETHAZAINE] | Compound NOT metabolized | Compound NOT metabolized | Compound NOT metabolized | Compound NOT metabolized | Compound NOT metabolized | Compound NOT metabolized | Compound NOT metabolized |  |  | Compound NOT metabolized |  | Compound NOT metabolized | Compound NOT metabolized | Compound NOT metabolized | Compound NOT metabolized | Compound NOT metabolized | Compound NOT metabolized | Compound NOT metabolized | Compound NOT metabolized
COc1ccc(Cc2nccc3cc(OC)c(OC)cc23)cc1OC [PAPAVERINE] | Compound NOT metabolized | Compound NOT metabolized | Compound NOT metabolized | Compound NOT metabolized | Compound NOT metabolized | Compound NOT metabolized | Compound NOT metabolized | Compound NOT metabolized | Compound NOT metabolized | Compound NOT metabolized | Compound NOT metabolized | Compound NOT metabolized |  | Compound NOT metabolized | Compound NOT metabolized | Compound NOT metabolized | Compound NOT metabolized | Compound NOT metabolized | Compound NOT metabolized
